How the values were obtained:
Type in all cases: biochemical
MAPKAPK2 = MAPKAPK2 (Homo sapiens, UniProt P49137); assay: Z'-LYTE kinome assay at […] (ATP Km app), n = […]; settings: read-out: CRO15 1 μM
GSK3B (GSK3 beta) = GSK3B (GSK3 beta) (Homo sapiens, UniProt P49841); assay: Z'-LYTE kinome assay at […] (ATP Km app), n = […]; settings: read-out: CRO15 1 μM
AKT2 (PKB beta) = AKT2 (PKB beta) (Homo sapiens, UniProt P31751); assay: Z'-LYTE kinome assay at […], n = […]; settings: read-out: CRO15 1 μM
[1] = biological target: T1, MELK (maternal embryonic leucine zipper kinase) (Homo sapiens, UniProt Q14680); assay: Z'-LYTE kinome assay at […] (ATP Km app); ADP-Glo dose-response with recombinant MELK; supported by biotin-CRO15 pull-down
T1 construct: recombinant MELK protein
T1 sequence (Q14680 whole entry): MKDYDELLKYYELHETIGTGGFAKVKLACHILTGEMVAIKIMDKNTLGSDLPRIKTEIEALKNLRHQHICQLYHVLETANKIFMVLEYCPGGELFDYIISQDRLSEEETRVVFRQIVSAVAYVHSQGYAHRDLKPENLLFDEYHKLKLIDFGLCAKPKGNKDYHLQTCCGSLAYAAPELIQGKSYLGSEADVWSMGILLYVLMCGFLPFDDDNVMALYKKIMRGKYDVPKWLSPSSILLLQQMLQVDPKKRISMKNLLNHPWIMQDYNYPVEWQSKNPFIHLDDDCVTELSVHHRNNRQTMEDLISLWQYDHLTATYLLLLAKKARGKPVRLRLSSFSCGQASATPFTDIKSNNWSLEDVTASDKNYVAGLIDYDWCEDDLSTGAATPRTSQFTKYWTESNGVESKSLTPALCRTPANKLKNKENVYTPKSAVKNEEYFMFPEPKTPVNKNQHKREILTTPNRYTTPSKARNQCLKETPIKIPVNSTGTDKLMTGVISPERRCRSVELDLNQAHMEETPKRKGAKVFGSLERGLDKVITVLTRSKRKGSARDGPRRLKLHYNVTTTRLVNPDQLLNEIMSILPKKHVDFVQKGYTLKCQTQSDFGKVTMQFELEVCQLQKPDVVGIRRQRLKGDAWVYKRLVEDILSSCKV

Sequence of GSK3B (GSK3 beta) (P49841 whole entry): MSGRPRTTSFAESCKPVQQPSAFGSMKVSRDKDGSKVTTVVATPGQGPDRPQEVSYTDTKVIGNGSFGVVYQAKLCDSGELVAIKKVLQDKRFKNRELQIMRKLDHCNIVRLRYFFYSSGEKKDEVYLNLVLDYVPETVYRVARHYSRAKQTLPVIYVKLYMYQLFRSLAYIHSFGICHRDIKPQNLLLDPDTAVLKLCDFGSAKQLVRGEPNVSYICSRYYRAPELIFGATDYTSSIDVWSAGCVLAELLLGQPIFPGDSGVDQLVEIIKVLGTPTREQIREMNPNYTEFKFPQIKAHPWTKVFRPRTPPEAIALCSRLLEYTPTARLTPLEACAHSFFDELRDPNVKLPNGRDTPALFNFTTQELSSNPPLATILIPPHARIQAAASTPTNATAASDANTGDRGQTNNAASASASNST
Sequence of AKT2 (PKB beta) (P31751 whole entry): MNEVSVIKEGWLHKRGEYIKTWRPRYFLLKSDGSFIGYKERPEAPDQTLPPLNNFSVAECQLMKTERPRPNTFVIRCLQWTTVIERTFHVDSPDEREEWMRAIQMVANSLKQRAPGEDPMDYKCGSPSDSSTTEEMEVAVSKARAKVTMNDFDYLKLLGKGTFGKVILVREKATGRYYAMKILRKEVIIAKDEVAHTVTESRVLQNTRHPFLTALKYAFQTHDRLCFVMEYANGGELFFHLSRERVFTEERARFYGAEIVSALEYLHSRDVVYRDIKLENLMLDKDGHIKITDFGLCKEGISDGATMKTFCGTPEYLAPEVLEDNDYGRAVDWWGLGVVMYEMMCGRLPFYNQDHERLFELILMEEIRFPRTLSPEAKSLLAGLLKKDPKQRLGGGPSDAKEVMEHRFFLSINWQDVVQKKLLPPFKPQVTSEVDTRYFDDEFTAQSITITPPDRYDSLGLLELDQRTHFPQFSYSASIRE
Sequence of MAPKAPK2 (P49137 whole entry): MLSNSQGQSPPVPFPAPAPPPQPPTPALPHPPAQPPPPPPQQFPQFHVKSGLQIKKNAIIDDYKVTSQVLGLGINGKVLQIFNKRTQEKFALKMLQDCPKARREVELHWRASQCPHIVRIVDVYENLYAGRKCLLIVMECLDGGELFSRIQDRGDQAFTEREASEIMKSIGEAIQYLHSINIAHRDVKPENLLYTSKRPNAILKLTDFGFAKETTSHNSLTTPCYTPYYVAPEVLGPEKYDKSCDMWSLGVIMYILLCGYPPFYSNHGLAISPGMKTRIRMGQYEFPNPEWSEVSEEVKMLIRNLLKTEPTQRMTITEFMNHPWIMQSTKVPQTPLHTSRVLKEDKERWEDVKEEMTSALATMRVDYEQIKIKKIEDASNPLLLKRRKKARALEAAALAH

- inhibition at 1 µM (MAPKAPK2): 90%
- inhibition at 1 µM (GSK3B (GSK3 beta)): 72%
- inhibition at 1 µM (AKT2 (PKB beta)): 74%
- inhibition at 1 µM [1]: 72%
Structure (SMILES): Nc1nc(Nc2ccccc2SSc2ccccc2Nc2nc(N)nc(C(Cl)(Cl)Cl)n2)nc(C(Cl)(Cl)Cl)n1 [CRO15]
